# Results taken from ChEMBL document CHEMBL5291721, “A preclinical secondary pharmacology resource illuminates target-adverse drug reaction associations of marketed drugs” (Nat Commun, 2023).
# Legend:
# [1] = target: T1, 5-hydroxytryptamine receptor 1A (Homo sapiens, UniProt P08908)
# T1 sequence (P08908 whole entry): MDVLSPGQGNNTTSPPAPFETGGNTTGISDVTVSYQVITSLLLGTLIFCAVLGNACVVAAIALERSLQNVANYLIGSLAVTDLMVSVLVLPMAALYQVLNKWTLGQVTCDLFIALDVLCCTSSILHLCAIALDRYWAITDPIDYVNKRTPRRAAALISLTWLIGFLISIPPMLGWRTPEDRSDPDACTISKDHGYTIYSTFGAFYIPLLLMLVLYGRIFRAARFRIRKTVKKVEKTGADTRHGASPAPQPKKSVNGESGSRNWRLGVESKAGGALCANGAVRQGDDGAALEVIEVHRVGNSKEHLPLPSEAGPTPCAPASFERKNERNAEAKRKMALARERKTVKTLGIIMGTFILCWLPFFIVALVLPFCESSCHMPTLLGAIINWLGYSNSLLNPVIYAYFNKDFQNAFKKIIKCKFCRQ
# [2] = target: Sodium-dependent dopamine transporter (Homo sapiens, UniProt Q01959)
# Prothrombin = Prothrombin (Homo sapiens, UniProt P00734); type: functional
# [3] = target: Voltage-gated inwardly rectifying potassium channel KCNH2 (Homo sapiens, UniProt Q12809); type: functional; details: read-out: AC50
# [4] = target: 5-hydroxytryptamine receptor 2B (Homo sapiens, UniProt P41595); type: functional, cell-based
# [5] = target: Delta-type opioid receptor (Homo sapiens, UniProt P41143)
# [6] = target: T2, Muscarinic acetylcholine receptor M2 (Homo sapiens, UniProt P08172)
# T2 sequence (P08172 whole entry): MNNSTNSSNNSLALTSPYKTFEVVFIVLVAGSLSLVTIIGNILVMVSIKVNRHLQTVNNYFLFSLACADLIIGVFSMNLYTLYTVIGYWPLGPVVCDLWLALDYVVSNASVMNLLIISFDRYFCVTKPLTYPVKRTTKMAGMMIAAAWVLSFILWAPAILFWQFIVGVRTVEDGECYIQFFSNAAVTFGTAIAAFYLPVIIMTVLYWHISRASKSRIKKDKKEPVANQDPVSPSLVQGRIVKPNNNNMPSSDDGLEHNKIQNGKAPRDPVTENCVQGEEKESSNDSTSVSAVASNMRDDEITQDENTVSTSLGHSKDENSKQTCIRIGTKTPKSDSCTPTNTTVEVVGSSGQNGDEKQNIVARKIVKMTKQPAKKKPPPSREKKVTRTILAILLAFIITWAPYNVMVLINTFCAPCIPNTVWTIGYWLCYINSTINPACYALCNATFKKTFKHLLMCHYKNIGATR
# [7] = target: 3',5'-cyclic-AMP phosphodiesterase 4A (Homo sapiens, UniProt P27815); type: functional
# [8] = target: Gamma-aminobutyric acid receptor subunit alpha-1 (Rattus norvegicus, UniProt P62813)
# [9] = target: T3, Amine oxidase [flavin-containing] A (Homo sapiens, UniProt P21397); type: functional
# T3 sequence (P21397 whole entry): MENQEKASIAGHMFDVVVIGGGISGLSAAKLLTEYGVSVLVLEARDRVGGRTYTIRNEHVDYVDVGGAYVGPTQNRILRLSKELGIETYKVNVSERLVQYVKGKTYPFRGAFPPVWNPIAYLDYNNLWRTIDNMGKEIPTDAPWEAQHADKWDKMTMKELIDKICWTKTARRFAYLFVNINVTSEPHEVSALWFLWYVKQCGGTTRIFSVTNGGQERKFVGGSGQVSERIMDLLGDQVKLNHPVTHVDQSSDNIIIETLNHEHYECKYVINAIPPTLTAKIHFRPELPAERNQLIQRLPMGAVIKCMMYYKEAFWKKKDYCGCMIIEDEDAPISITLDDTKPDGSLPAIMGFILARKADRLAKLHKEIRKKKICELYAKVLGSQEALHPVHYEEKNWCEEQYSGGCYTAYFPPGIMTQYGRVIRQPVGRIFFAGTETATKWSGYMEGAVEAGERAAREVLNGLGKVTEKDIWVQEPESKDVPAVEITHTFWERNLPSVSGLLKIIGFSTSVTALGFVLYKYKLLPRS
# Progesterone receptor = target: T4, Progesterone receptor (Homo sapiens, UniProt P06401)
# T4 sequence (P06401 whole entry): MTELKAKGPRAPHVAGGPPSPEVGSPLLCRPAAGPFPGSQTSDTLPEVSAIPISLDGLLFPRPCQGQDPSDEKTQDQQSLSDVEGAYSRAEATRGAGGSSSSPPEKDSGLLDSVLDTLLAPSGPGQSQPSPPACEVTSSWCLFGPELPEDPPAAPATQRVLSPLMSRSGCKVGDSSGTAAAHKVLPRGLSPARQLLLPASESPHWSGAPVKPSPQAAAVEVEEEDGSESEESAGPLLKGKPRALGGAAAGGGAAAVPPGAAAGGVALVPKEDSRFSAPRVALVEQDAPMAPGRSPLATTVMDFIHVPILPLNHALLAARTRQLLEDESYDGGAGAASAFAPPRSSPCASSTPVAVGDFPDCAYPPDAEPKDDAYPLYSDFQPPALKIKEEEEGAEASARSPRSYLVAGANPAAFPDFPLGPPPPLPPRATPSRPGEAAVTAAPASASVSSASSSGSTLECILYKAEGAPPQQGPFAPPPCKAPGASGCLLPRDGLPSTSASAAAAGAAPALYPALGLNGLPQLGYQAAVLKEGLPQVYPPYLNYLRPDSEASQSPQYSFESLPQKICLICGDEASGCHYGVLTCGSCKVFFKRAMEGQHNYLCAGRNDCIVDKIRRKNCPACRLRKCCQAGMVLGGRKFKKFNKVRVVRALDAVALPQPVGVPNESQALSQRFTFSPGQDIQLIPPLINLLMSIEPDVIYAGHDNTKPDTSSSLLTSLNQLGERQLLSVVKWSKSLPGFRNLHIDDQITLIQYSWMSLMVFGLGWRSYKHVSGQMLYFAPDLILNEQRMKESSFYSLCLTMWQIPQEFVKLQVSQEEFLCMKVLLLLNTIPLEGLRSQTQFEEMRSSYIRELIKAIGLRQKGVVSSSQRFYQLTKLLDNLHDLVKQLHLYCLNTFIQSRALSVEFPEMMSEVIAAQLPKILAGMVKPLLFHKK
# Also: assay procedure not described here.
# Sequence of Delta-type opioid receptor (P41143 whole entry): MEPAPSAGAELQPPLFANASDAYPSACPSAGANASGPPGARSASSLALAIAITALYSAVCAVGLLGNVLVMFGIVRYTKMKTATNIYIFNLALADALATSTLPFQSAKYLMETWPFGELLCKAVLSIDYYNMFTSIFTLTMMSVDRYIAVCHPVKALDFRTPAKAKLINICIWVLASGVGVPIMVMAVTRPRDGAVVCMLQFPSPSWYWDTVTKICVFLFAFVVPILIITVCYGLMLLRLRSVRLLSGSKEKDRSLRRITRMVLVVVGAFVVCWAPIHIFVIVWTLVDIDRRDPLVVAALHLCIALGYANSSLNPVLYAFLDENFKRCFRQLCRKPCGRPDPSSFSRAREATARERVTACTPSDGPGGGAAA
# Sequence of Voltage-gated inwardly rectifying potassium channel KCNH2 (Q12809 whole entry): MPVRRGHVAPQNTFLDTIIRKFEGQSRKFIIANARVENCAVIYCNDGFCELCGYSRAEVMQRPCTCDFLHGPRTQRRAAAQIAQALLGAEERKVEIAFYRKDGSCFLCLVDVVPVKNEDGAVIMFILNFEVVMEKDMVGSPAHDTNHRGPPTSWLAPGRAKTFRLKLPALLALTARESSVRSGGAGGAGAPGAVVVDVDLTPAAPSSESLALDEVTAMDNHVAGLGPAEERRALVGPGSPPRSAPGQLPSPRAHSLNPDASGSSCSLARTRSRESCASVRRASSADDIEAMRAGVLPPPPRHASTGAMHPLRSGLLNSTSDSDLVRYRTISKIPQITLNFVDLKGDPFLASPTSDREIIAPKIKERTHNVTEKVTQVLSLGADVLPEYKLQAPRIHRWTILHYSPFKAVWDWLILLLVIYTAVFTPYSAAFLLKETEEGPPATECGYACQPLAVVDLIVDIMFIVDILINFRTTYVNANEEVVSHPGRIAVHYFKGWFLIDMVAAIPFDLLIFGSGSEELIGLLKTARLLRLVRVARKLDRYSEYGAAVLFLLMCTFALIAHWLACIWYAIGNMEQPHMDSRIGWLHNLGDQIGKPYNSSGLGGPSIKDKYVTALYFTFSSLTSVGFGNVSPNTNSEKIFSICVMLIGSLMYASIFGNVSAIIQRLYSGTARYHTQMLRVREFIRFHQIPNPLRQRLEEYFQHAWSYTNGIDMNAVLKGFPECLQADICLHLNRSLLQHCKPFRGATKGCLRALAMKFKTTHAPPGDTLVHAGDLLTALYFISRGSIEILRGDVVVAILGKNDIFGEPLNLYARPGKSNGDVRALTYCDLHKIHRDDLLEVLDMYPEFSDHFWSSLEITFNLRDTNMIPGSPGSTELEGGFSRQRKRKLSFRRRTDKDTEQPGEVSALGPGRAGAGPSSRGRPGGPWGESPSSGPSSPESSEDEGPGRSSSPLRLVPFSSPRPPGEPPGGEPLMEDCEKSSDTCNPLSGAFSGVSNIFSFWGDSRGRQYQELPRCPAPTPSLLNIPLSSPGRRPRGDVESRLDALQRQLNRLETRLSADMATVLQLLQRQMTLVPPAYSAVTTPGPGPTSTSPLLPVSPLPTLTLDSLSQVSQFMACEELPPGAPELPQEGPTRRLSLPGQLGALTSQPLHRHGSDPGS
# Sequence of 3',5'-cyclic-AMP phosphodiesterase 4A (P27815 whole entry): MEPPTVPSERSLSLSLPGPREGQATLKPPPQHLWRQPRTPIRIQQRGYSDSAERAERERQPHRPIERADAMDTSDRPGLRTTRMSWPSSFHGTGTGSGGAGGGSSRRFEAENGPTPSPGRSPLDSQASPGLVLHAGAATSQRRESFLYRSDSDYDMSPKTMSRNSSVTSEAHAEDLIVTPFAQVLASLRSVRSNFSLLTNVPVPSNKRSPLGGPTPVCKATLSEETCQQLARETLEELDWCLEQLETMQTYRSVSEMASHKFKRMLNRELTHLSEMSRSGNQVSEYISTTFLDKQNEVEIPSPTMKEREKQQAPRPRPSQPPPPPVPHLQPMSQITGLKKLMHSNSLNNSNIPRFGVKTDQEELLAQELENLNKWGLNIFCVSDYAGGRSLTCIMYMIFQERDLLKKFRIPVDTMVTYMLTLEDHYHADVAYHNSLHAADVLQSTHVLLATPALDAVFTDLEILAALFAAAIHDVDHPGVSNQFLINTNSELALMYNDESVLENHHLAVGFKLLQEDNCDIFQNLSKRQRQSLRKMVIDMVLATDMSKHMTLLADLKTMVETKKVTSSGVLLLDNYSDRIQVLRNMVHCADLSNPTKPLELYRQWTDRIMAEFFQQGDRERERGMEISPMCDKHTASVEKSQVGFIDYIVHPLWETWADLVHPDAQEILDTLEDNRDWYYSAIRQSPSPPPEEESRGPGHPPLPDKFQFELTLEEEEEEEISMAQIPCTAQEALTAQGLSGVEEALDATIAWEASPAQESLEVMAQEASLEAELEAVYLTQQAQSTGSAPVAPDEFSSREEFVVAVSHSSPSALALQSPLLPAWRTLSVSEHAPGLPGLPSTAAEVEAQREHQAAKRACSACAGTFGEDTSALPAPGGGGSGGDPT
# Sequence of Gamma-aminobutyric acid receptor subunit alpha-1 (P62813 whole entry): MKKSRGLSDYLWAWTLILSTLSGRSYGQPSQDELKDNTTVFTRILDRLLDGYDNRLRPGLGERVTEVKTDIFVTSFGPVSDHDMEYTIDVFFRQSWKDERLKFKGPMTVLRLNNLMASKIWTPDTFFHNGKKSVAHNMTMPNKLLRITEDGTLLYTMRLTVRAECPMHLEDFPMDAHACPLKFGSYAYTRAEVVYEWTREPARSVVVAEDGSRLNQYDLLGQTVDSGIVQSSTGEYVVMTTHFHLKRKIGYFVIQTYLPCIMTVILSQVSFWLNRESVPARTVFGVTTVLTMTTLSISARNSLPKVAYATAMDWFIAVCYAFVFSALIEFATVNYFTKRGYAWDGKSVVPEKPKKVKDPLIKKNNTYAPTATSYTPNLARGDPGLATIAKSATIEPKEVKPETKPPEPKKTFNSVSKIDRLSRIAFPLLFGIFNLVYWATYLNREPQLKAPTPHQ
# Sequence of 5-hydroxytryptamine receptor 2B (P41595 whole entry): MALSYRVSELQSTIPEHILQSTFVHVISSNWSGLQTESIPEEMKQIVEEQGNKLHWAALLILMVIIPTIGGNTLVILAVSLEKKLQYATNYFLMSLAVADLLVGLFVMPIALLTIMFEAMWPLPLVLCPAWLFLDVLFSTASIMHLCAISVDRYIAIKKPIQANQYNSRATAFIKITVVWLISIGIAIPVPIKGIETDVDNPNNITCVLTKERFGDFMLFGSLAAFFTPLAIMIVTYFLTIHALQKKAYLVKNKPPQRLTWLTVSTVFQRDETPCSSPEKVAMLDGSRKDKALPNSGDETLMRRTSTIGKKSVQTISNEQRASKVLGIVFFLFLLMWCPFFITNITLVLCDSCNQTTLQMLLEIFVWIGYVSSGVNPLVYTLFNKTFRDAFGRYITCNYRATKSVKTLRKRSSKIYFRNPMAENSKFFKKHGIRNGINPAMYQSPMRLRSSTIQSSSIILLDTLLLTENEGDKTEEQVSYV
# Sequence of Sodium-dependent dopamine transporter (Q01959 whole entry): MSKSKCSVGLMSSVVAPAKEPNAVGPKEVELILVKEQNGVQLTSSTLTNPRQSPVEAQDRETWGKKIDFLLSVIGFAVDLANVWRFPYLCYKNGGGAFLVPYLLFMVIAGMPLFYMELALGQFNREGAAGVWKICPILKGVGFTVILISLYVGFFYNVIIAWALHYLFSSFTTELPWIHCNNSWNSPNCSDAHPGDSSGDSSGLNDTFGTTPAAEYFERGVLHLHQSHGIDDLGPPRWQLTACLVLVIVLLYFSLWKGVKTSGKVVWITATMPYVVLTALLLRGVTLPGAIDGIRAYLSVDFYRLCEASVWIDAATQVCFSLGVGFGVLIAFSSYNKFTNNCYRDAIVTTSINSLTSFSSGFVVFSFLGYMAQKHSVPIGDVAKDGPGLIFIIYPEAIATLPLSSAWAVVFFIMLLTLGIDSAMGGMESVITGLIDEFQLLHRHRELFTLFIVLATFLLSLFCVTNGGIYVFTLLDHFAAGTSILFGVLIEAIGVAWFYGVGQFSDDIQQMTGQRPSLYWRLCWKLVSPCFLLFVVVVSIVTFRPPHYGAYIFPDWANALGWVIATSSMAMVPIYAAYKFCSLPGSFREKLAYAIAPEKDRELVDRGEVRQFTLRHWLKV
smiles,measurement,setting,value
COCCCOc1ccnc(C[S+]([O-])c2nc3ccccc3[nH]2)c1C (stereo unspecified) [RABEPRAZOLE],AC50,[1],12.8 µM
same,AC50,[2],> 30 µM
same,AC50,Prothrombin,> 30 µM
same,AC50,[3],5.33 µM
same,AC50,[4],> 30 µM
same,AC50,[5],> 30 µM
same,AC50,[6],> 30 µM
same,AC50,[7],> 30 µM
same,AC50,[8],> 10 µM
same,AC50,[9],> 30 µM
same,AC50,Progesterone receptor,> 30 µM
